The text below walks through data of patent publication US9351955B2, “Compounds and pharmaceutical compositions thereof for the treatment of cystic fibrosis” (Galapagos NV, priority 2013, dated 2016).

The EC50 is the concentration giving half of the maximal effect.

Test [1] concerns the target T1, CFTR G551D mutant (Homo sapiens, UniProt P13569, G551D).
T1 construct: expressed in transfected cells; host or cells: HEK293 (reverse transfection with plasmids)
The test can be described thus: YFP-halide influx assay for the CFTR-G551D mutation (HEK293 cells). Format: cell-based. The settings on record: HEK293 cells expressing CFTR G551D and YFP reporter; forskolin 10.67 μM; read-out: EC50 measured by YFP-halide influx assay for the CFTR-G551D. Summed up:
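HEK293 cells reverse-transfected with CFTR G551D and halide-sensitive YFP, expressed 24 h at 37 °C. Iodide-induced fluorescence quench recorded for 7 s after I^− injection; response as 1−F/F0, EC50 from concentration plot.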

Test [2] deals with T2, CFTR ΔF508 (Homo sapiens, UniProt P13569, DEL508-508).
T2 construct: host or cells: primary bronchial epithelial cells from CF patients homozygous for ΔF508, pre-treated with VX809
T2 sequence (P13569 with tags, fused parts or gaps DEL508-508): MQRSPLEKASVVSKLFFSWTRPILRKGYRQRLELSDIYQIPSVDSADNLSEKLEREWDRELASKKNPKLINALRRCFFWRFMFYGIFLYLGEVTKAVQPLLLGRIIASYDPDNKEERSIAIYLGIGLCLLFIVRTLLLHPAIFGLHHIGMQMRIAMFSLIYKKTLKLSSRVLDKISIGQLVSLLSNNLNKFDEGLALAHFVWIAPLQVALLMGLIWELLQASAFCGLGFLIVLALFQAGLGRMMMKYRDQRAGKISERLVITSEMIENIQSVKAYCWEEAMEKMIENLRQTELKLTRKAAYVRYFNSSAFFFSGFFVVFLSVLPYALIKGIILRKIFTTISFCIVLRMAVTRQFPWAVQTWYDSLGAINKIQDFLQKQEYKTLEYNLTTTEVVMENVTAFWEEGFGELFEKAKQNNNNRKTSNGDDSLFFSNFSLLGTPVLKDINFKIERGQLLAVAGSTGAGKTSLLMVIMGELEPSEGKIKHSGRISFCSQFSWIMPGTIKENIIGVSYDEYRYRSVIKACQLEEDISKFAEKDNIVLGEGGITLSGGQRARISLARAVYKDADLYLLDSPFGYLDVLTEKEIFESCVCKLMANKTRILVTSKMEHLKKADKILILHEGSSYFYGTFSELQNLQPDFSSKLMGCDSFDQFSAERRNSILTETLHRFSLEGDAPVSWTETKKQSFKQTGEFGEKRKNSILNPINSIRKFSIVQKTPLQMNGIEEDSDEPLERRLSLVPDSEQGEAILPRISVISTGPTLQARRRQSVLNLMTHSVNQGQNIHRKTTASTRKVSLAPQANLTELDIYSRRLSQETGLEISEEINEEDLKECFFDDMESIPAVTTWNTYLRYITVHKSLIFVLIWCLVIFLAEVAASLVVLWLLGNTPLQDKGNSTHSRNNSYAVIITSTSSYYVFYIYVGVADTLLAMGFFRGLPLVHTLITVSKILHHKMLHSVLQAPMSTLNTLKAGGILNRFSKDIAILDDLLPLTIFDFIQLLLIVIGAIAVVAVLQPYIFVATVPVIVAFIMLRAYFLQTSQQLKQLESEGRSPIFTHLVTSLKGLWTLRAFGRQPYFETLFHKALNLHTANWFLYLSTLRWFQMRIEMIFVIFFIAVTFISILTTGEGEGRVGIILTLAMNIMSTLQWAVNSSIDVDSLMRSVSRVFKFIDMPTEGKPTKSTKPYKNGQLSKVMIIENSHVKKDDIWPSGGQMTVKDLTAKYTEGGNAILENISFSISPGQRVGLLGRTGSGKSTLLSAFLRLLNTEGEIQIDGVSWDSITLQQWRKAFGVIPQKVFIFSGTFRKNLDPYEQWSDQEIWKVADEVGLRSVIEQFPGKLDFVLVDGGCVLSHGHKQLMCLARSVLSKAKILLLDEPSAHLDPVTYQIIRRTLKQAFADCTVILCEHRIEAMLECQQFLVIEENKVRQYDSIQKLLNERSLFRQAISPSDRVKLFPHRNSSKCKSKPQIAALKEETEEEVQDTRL
As to the kind of experiment: TECC assay, primary bronchial epithelial cells from CF patients homozygous for CFTR ΔF508. Type of test: cell-based. To be noted: for ΔIsc / Current increase: TECC assay; for Current increase: difference between ΔIsc with compound and ΔIsc DMSO (baseline); for EC50: primary bronchial epithelial cells, CFTR ΔF508, several values in a cell = repeat determinations. How it is done:
7.2.1. Primary Bronchial Epithelial Cells Protocol
The TECC (Tranepithelial Clamp Circuit, EP-design) assay measures the functionality of the cystic fibrosis Transmembrane Conductance regulator (CFTR) by measuring the short circuit current (ISC) generated over the basolateral and apical membrane of lung epithelial cells. In TECC the transepithelial potential PD and transepithelial resistance (Rt) are measured in an open circuit and transformed to ISC using Ohm's law. 24 wells can be measured simultaneously allowing a higher throughput compared to Ussing chambers.
For this purpose, bronchial epithelial cells isolated from CF patients homozygous for the CFTR ΔF508 mutation (hAEC-CF, Epithelix) are plated on type IV collagen-coated Transwell supports (Costar). Human airway epithelia are generated by provision of an air-liquid interface for 21 days to form well-differentiated polarized cultures that resemble in vivo pseudo-stratified ciliated epithelium (Fulcher et al., 2005). In the case of the homozygous ΔF508 CFTR samples, the differentiated cells are treated with 3 μM VX809 (2626 South Loop West, Suite 225, Houston, Tex. 77054 USA, Cat n#51565) to allow sufficient expression of properly folded CFTR protein on the membrane (48 hours basolateral treatment and 24 hours apical treatment), prior to electrophysiological recordings. […] G551D/ΔF508, differentiated cells are used as such for the recordings.
Information on the compounds can be retrieved on the homozygous ΔF508 CFTR samples looking at increased CFTR activity when compounds are added in an acute mode or in a chronic mode. On G551D/ΔF508 CFTR heterozygous samples compounds are added in an acute mode to the differentiated cells.
For the acute mode, for electrophysiological recording, the human airway epithelia are mounted in the TECC heating plate for electrophysiological measurement and kept at 37° C. The epithelia are bathed in a NaCl-Ringer solution (120 mM NaCl, 25 mM NaHCO3, 1.2 mM CaCl2, 1.2 mM MgCl2, 0.8 mM KH2PO4, 0.8 mM K2HPO4, pH 7.4, 5 mM glucose) on both the basolateral and apical sides. Apical amiloride is used to inhibit the endogenous ENaC currents while forkolin is applied on both apical and basolateral side to stimulate CFTR. After forskolin triggering, compounds are added on both sides to test their potential for increasing CFTR gating. Measurements are done during a 20 minute timeframe with recordings every 2 minutes. The increase in ISC is used as a measure for the increased CFTR activity, EC50 values can be generated by measuring impact of different concentrations of compound on ISC on primary cells, for this purpose each transwell is treated with a different compound concentration. Inh-172, an inhibitor specific for CFTR, is used to test the specificity of the tested compounds.
For the chronic mode, the differentiated cells are treated with 3 μM VX809 (2626 South Loop West, Suite 225, Houston, Tex. 77054 USA, Cat n#51565) and potentiator compounds at different concentrations (48 hours basolateral treatment and 24 hours apical treatment), prior to electrophysiological recordings. For electrophysiological recording, the human airway epithelia are mounted in the TECC heating plate for electrophysiological measurement and kept at 37° C. […]

Values joined by “and” are separate entries in the source; they are usually repeats but may differ in a detail not shown here. Identical values can stand only once.

T1 sequence (P13569 whole entry G551D): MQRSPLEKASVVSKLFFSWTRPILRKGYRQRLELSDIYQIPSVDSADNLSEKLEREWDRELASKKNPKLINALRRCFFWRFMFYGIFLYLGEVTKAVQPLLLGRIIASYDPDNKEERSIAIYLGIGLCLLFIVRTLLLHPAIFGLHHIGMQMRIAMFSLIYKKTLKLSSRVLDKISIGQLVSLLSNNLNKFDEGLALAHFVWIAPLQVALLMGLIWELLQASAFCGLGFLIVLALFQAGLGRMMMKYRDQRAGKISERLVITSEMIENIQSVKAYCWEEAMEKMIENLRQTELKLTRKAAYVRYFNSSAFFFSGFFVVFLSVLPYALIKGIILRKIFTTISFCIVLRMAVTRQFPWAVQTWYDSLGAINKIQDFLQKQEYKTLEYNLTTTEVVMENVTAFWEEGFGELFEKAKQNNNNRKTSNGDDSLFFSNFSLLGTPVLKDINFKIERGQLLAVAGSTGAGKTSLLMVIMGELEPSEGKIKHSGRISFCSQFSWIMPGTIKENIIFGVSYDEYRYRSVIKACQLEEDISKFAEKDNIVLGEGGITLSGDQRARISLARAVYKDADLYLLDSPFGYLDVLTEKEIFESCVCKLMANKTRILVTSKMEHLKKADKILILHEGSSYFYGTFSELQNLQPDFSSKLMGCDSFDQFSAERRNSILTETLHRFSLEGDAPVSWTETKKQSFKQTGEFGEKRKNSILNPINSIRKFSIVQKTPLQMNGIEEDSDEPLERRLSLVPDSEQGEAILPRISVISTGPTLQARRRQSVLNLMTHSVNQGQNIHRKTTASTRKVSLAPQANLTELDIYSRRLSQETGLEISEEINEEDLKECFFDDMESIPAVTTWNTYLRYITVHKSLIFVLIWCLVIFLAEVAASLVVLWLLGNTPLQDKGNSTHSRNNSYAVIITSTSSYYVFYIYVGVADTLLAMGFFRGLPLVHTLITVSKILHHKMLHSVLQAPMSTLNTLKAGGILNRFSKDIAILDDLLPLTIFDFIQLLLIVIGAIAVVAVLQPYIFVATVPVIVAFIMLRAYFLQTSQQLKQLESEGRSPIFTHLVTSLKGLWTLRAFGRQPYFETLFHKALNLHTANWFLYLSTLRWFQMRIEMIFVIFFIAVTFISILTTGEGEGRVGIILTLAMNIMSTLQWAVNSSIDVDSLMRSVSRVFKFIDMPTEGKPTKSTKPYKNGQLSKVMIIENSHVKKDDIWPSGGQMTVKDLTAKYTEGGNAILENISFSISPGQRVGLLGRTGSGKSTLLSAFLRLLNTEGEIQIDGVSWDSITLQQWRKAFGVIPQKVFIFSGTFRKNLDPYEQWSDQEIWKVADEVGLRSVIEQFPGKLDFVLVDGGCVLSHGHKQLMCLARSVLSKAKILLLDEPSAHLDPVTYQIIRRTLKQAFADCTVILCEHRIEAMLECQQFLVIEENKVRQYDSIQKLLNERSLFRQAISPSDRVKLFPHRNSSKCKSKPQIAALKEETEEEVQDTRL

As for `CC1(C)Cc2c(sc(NC(=O)c3ccn[nH]3)c2C(N)=O)C(C)(C)O1` [Compound 2, N-(3-carbamoyl-5,5,7,7-tetramethyl-5,7-dihydro-4H-thieno[2,3-c]pyran-2-yl)-1H-pyrazole-5-carboxamide], the EC50 in test [1] is 500 nM; in test [2] it was 37 nM. For the same compound, the ΔIsc in test [2] (compound at 50 nM (Table XV)) is 4.5996 μA/cm^2; in test [2] (compound at 50 nM (Table XVI)), 4.5996 μA/cm^2; in test [2] (compound at 100 nM (Table XVI)) it was 4.9327 μA/cm^2; in test [2] (compound at 200 nM (Table XVI)) it was 5.0457 μA/cm^2; in test [2] (compound at 3 μM), 10.9207 μA/cm^2. For the same compound, the Current increase in test [2] (compound at 50 nM) is listed as 4.9244 μA/cm^2; in test [2] (compound at 3 μM), 11.6634 μA/cm^2. For the same compound, in test [2] (at 3 μM, or 50 nM, or 50/100/200 nM), the “activity on the CFTR protein in TECC assay (ΔISC vs DMSO baseline)” value is reported as “shows an activity”.

`CC1(C)Cc2c(sc(NC(=O)C3(O)CC3)c2C(N)=O)C(C)(C)O1` [Compound 4, 2-(1-hydroxycyclopropanecarboxamido)-5,5,7,7-tetramethyl-5,7-dihydro-4H-thieno[2,3-c]pyran-3-carboxamide]: the EC50 in test [1] was found to be 1340 nM. For the same compound, in test [2] (compound at 3 μM), the ΔIsc was 4.6728 μA/cm^2 and the Current increase is 5.1939 μA/cm^2.

As for `CC1(C)Cc2c(sc(NC(=O)C3(CO)CC3)c2C(N)=O)C(C)(C)O1` [Compound 9, 2-(1-(hydroxymethyl)cyclopropanecarboxamido)-5,5,7,7-tetramethyl-5,7-dihydro-4H-thieno[2,3-c]pyran-3-carboxamide], the EC50 is 1000 nM in test [1]; 237 nM and 65 nM in test [2].

For the compound `CC1(C)Cc2c(sc(NC(=O)C(C)(C)CO)c2C(N)=O)C(C)(C)O1` [Compound 10, 2-(3-hydroxy-2,2-dimethylpropanamido)-5,5,7,7-tetramethyl-5,7-dihydro-4H-thieno[2,3-c]pyran-3-carboxamide], the EC50 in test [1] was found to be 2650 nM. In test [2] (compound at 3 μM), the ΔIsc came to 3.9356 μA/cm^2 and the Current increase amounted to 4.4567 μA/cm^2.
